Measured values: patent publication US20160010059A1, “EXPANSION OF HEMATOPOIETIC PROGENITOR CELLS BY HISTONE METHYLTRANSFERASE G9a INHIBITION” (The Regents of the University of California, priority 2013, published 2016)
“Also recorded” adds a separate entry of the source.

Columns and labels:
[1] = test system: H3k9me2 on putative G9a targets; assay: ChIP-qPCR of histone marks on putative G9a targets identified by RNA-seq; type: cell-based, mouse; settings: n=3
[2] = test system: lethally irradiated C57BL/6 mice; assay: Transplantation of cultured HSCs into lethally irradiated mice (chimerism); type: in vivo, mouse
KLS cells = assay: Replating of cultured cells into liquid culture with SCF and TPO (proliferation capacity); type: cell-based, mouse
HSC-related genes = assay: Global gene expression analysis (RNA-seq) of KLS fractions after 5 days in vitro culture; type: cell-based, mouse; settings: 5 days culture
H3K9me2 / H3K9me3 = assay: Histone western blot and immunofluorescence in UNC0638 treated cells; type: cell-based, mouse
Experimental: (§1) For western blot, FACS sorted cells were lysed in RIPA buffer, and run in a 15% gradient SDS-page (BIO-RAD). Histone modifications were assessed with antibodies against H3k27me3 (07-449 Millipore), H3 Acetylated (06-599), H4K16Ac (07-329), H3k4me3 (07-473), total H3 (06-755), H3k36me3 (Ab9050 abcam), H3k9me2 (Ab1220), H3k9me3 (Ab8898). Cells were incubated with the HDAC inhibitor trichostatin A (Cell signaling) at 37° C. for 2 hours to induce histone acetylation. For immunostaining cells were sorted onto poly-lysine coated slides, fixed with 2% PFA, permeabilized with 0.1% triton-x in PBS, and stained with H3k9me3 (Ab8898), Lamin B (sc-6217) antibodies followed by an Alexa488-Donkey-α-goat and a Alexa594-goat-α-rabbit secondary antibody (Invitrogen) plus DAPI. Images were acquired using a PerkinElmer Volocity spinning disk confocal microscope. Image analysis was done using ImageJ software (Schneider et al., 2012).

histone acetylation = assay: Histone western blot after HDAC inhibitor treatment (assay sensitivity control); type: cell-based, mouse; settings: 37° C. for 2 hours
Experimental: as §1

Row | SMILES | levels of H3k9me2 on putative G9a targets [1] | levels of H3k9me3 on putative G9a targets [1] | levels of active mark H3K4me3 on putative G9a targets [1] | lineage readout after transplantation ([2]; 24 hrs or 5 days culture) | Percentage of chimerism / engraftment ([2]; cells cultured for 24 hrs with UNC0638 before transplantation, n=10 per group) | Percentage of chimerism / engraftment ([2]; cells cultured for 5 days on AFT024 feeder layers with UNC0638 before transplantation, n=10) | proliferation capacity (KLS cells; after day 5 of in vitro culture) | proliferation capacity (KLS cells; replating equal amounts of KLS after 5 days culture) | number of cells (KLS cells; replating equal amounts of Kit+ cells, 10 days in culture) | downregulated genes (HSC-related genes; Egr1, Ndn, Robo4) | upregulated genes (HSC-related genes; vs DMSO control, DESEQ padj<0.01, e.g. Sox6, Itga2b, Gata1, Fgf3) | amount of H3K9me2 by western blot (H3K9me2 / H3K9me3; UNC0638 treated cells) | distribution of H3K9me3 by immunofluorescence (H3K9me2 / H3K9me3; compared to the DMSO treated control) | global levels of histone acetylation (histone acetylation)
1 | COc1cc2c(NC3CCN(C(C)C)CC3)nc(C3CCCCC3)nc2cc1OCCCN1CCCC1 [UNC0638] | significantly lower amount of H3K9me2 at their promoter; also recorded: significantly reduced levels of H3k9me2 | trend to lower amount of H3K9me3; also recorded: mild trend toward H3k9me3 reduction | no differences for the active mark H3K4me3 | no defects in lineage potential; also recorded: readout in all 5 lineages | minor increase in engraftment; also recorded: positive trend in higher chimerism for UNC0638 treated cells in all myeloid and lymphoid lineages, though not significant | modest increase in the levels of engraftment; also recorded: significantly higher % of GM and B chimerism | increase proliferation capacity after day 5 | equal proliferation capacity as the KLS control cells | significant higher number of cells after 10 days in culture | significantly downregulation of some genes | significant number of HSC-related genes upregulated; also recorded: significant number of upregulated HSC-related genes | effect is highly enriched in the KLS fraction | more disperse distribution of this histone mark | 
2 | CC(/C=C/C(=O)NO)=C\[C@@H](C)C(=O)c1ccc(N(C)C)cc1 [trichostatin A] |  |  |  |  |  |  |  |  |  |  |  |  |  | significantly increased the global levels of histone acetylation
